The values below come from patent US20230038929A1, “Fused Tricyclic Heterocyclic Compounds and Uses Thereof” (Verge Analytics, Inc., priority 2019, published 2023).

Structures can show the parent of a compound that is named as a salt.

The target in this assay is T1, Full length human recombinant PIKFYVE (Homo sapiens, UniProt Q9Y2I7, L932S/Q1183K/Q995L/S1033A/S696N/T998S).
T1 construct: Full length human recombinant PIKFYVE; purchased Carna Biosciences (Kobe, Japan); host or cells: baculovirus expression system (insect cells)
T1 sequence (Q9Y2I7 whole entry S696N/L932S/Q995L/T998S/S1033A/Q1183K): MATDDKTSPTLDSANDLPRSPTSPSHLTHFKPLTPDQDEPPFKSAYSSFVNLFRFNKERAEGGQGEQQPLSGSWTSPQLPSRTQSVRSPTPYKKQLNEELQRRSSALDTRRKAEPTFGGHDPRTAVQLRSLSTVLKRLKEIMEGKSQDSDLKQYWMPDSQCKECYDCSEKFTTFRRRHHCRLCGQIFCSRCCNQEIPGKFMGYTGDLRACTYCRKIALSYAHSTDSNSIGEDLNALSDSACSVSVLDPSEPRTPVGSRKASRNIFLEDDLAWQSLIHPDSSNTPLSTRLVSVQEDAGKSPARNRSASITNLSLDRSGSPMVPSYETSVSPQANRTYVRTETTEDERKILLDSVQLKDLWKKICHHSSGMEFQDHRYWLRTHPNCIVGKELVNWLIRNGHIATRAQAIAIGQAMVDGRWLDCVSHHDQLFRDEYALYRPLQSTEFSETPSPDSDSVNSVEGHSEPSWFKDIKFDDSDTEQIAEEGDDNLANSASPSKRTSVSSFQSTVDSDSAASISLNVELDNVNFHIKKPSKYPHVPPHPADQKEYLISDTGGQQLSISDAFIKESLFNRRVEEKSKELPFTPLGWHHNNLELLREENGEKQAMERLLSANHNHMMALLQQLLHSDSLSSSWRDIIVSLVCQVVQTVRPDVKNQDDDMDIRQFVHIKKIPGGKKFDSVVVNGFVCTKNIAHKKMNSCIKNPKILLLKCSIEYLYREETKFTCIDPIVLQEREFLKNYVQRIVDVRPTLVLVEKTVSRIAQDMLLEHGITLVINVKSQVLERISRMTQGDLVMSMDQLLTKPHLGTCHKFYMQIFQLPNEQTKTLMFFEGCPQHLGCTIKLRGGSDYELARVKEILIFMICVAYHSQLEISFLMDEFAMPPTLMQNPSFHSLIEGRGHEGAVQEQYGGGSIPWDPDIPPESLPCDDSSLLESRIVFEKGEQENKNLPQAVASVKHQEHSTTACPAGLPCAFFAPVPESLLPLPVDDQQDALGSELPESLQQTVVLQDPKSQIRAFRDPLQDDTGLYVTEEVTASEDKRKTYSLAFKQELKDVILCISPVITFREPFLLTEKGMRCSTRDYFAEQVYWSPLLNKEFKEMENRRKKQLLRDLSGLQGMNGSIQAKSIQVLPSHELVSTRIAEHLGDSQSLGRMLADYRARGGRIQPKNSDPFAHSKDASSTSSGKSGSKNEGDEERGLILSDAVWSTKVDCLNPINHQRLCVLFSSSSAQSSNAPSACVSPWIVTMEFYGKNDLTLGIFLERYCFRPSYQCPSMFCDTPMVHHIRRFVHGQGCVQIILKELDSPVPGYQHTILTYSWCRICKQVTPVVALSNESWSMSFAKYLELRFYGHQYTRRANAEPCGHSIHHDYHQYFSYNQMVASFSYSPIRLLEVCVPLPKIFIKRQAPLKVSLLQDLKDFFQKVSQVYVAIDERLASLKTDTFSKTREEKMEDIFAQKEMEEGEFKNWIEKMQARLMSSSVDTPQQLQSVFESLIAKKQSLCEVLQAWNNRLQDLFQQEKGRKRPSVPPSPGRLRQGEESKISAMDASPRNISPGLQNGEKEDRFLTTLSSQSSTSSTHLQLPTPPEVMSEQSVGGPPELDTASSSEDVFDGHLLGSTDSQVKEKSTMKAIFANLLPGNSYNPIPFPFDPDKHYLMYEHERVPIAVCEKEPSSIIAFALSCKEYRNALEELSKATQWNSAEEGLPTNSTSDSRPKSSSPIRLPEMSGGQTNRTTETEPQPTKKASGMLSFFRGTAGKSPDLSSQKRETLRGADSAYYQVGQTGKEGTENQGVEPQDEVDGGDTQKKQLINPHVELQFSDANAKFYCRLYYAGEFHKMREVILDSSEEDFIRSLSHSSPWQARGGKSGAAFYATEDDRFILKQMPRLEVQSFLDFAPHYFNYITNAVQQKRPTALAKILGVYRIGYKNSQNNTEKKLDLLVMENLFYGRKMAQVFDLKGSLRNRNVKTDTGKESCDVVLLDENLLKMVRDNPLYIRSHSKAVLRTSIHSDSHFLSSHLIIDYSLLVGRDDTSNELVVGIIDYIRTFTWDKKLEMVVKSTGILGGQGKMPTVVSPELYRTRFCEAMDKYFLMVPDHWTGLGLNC
In words: Inhibition of PIKfyve (microfluidic electrophoresis kinase assay). It counts as biochemical. Particulars: 2 nM enzyme, 1 μM PI3P, 3 h at room temperature, 12 concentrations; read-out: PIKfyve IC50. The method, then: Biological Example 1: Inhibition of PIKfyve
Full length human recombinant PIKFYVE expressed in baculovirus expression system as N-terminal GST-fusion protein (265 kDa) was obtained from Carna Biosciences (Kobe, Japan). The kinase substrate was prepared by mixing and sonicating fluorescently-labeled phosphatidylinositol 3-phosphate (PI3P) with phospho-L-serine (PS) at a 1:10 ratio in 50 mM HEPES buffer pH7.5.
The kinase reactions were assembled in 384-well plates (Greiner) in a total volume of […] as follows. Kinase protein was pre-diluted in an assay buffer comprising 25 mM HEPES, pH 7.5, 1 mM DTT, 2.5 mM MgCl2, and 2.5 mM MnCl2, and 0.005% Triton X-100, and dispensed into a 384-well plate (10 μL per well). Test compounds were serially pre-diluted in DMSO and added to the protein samples by acoustic dispensing (Labcyte Echo). The concentration of DMSO was equalized to 1% in all samples. All test compounds were tested at 12 concentrations. Apilimod was used as a reference compound and was tested in identical manner in each assay plate. Control samples (0%-inhibition, in the absence of inhibitor, DMSO only) and 100%-inhibition (in the absence of enzyme) were assembled in replicates of four and were used to calculate %-inhibition in the presence of compounds. The reactions were initiated by addition of 10 μL of 2× PI3P/PS substrate supplemented with ATP. The final concentration of enzyme was 2 nM, the final concentration of ATP was […], and the final concentration of PI3P/PS substrate was 1 μM (PI3P). The kinase reactions were allowed to proceed for 3 h at room temperature. Following incubation, the reactions were quenched by addition of […] of termination buffer (100 mM HEPES, pH 7.5, 0.01% Triton X-100, 20 mM EDTA). Terminated plates were analyzed on a microfluidic electrophoresis instrument (Caliper LabChip® 3000, Caliper Life Sciences/Perkin Elmer). The change in the relative fluorescence intensity of the PI(3)P substrate and PI(3,5)P product peaks was measured. The activity in each test sample was determined as the product to sum ratio (PSR): P/(S+P), where P is the peak height of the product, and S is the peak height of the substrate. Percent inhibition (Pinh) was determined using the following equation:
Pinh=(PSR0%inh−PSRcompound)/(PSR0%inh−P100%inh)*100
in which PSRcompound is the product/sum ratio in the presence of compound, PSR0%inh is the product/sum ratio in the absence of compound, and the PSR100%inh is the product/sum ratio in the absence of the enzyme. To determine the ICso of test compounds (50%-inhibition) the %-inh cdata (Pinh versus compound concentration) were fitted by a four-parameter sigmoid dose-response model using XLfit software (IDBS).
For orientation: IC50 means the midpoint of a concentration-inhibition curve. Turning to `Fc1ccc(-c2cc(Nc3nc(N4CCOCC4)c4oc5ncccc5c4n3)[nH]n2)cc1` [Example 1, N-(3-(4-Fluorophenyl)-1H-pyrazol-5-yl)-4-morpholinopyrido[3′,2′:4,5]furo[3,2-d]pyrimidin-2-amine hydrochloride], the IC50 amounted to 473 nM.

Regarding `c1ccc(CNc2nc(N3CCOCC3)c3oc4ncccc4c3n2)cc1` [Example 2, N-Benzyl-4-morpholinopyrido[3′,2′:4,5]furo[3,2-d]pyrimidin-2-amine], the IC50 is above 10000 nM.

`O=C(Nc1nc(N2CCOCC2)c2oc3ncccc3c2n1)c1ccccc1` [Example 3]: the IC50 was above 10000 nM.

In the case of `CN(C)CCOc1ccc2c(n1)oc1c(N3CCOCC3)nc(Nc3cc(-c4ccccc4)n[nH]3)nc12` [Example 4, 7-(2-(Dimethylamino)ethoxy)-4-morpholino-N-(3-phenyl-1H-pyrazol-5-yl)pyrido[3′,2′:4,5]furo[3,2-d]pyrimidin-2-amine hydrochloride], the IC50 came to 68 nM.

In the case of `Oc1ccc2c(n1)oc1c(N3CCOCC3)nc(Nc3cc(-c4ccccc4)n[nH]3)nc12` [Example 5, 4-Morpholino-2-((3-phenyl-1H-pyrazol-5-yl)amino)pyrido[3′,2′:4,5]furo[3,2-d]pyrimidin-7-ol hydrochloride], the IC50 came out at 17 nM.

In the case of `c1ccc(-c2cc(Nc3nc(N4CCOCC4)c4oc5ncccc5c4n3)[nH]n2)nc1` [Example 6, 4-Morpholino-N-(3-(pyridin-2-yl)-1H-pyrazol-5-yl)pyrido[3′,2′:4,5]furo[3,2-d]pyrimidin-2-amine hydrochloride], the IC50 came out at 251 nM.

For `Cc1ccnc(-c2cc(Nc3nc(N4CCOCC4)c4oc5ncccc5c4n3)[nH]n2)c1` [Example 7, N-(3-(4-Methylpyridin-2-yl)-1H-pyrazol-5-yl)-4-morpholinopyrido[3′,2′:4,5]furo[3,2-d]pyrimidin-2-amine hydrochloride], the half-inhibitory concentration (IC50) turned out to be 573 nM.

For the compound `CN(C)CCc1cnc2oc3c(N4CCOCC4)nc(Nc4cc(-c5ccccc5)n[nH]4)nc3c2c1` [Example 13, 8-(2-(Dimethylamino)ethyl)-4-morpholino-N-(3-phenyl-1H-pyrazol-5-yl)pyrido[3′,2′:4,5]furo[3,2-d]pyrimidin-2-amine], the half-inhibitory concentration (IC50) came to 143 nM.

For `Fc1ccccc1-c1cc(Nc2nc(N3CCOCC3)c3oc4ncccc4c3n2)[nH]n1` [Example 15, N-(3-(2-fluorophenyl)-1H-pyrazol-5-yl)-4-morpholinopyrido[3′,2′:4,5]furo[3,2-d]pyrimidin-2-amine hydrochloride], the IC50 is 108 nM.

As to `Fc1cccc(-c2cc(Nc3nc(N4CCOCC4)c4oc5ncccc5c4n3)[nH]n2)c1` [Example 16, N-(3-(3-fluorophenyl)-1H-pyrazol-5-yl)-4-morpholinopyrido[3′,2′:4,5]furo[3,2-d]pyrimidin-2-amine hydrochloride], the IC50 turned out to be 129 nM.

As for `Clc1cccc(-c2cc(Nc3nc(N4CCOCC4)c4oc5ncccc5c4n3)[nH]n2)c1` [Example 17, N-(3-(3-chlorophenyl)-1H-pyrazol-5-yl)-4-morpholinopyrido[3′,2′:4,5]furo[3,2-d]pyrimidin-2-amine hydrochloride], the IC50 was 129 nM.

In the case of `FC(F)(F)c1cccc(-c2cc(Nc3nc(N4CCOCC4)c4oc5ncccc5c4n3)[nH]n2)c1` [Example 18, 4-morpholino-N-(3-(3-(trifluoromethyl)phenyl)-1H-pyrazol-5-yl)pyrido[3′,2′:4,5]furo[3,2-d]pyrimidin-2-amine hydrochloride], the IC50 was found to be 1630 nM.

As for `Fc1ccc(-c2cc(Nc3nc(N4CCOCC4)c4oc5ncccc5c4n3)[nH]n2)cc1F` [Example 19, N-(3-(3,4-difluorophenyl)-1H-pyrazol-5-yl)-4-morpholinopyrido[3′,2′:4,5]furo[3,2-d]pyrimidin-2-amine hydrochloride], the IC50 was determined as 2180 nM.

Take `c1ccc(-c2c[nH]c(Nc3nc(N4CCOCC4)c4oc5ncccc5c4n3)n2)cc1` [Example 20, 4-morpholino-N-(4-phenyl-1H-imidazol-2-yl)pyrido[3′,2′:4,5]furo[3,2-d]pyrimidin-2-amine hydrochloride]: the IC50 came to 4750 nM.

For `CN(C)CCCOc1ccc2c(n1)oc1c(N3CCOCC3)nc(Nc3cc(-c4ccccc4)n[nH]3)nc12` [Example 23, 7-(3-(dimethylamino)propoxy)-4-morpholino-N-(3-phenyl-1H-pyrazol-5-yl)pyrido[3′,2′:4,5]furo[3,2-d]pyrimidin-2-amine hydrochloride], the IC50 worked out at 20 nM.

Consider `c1ccc(-c2cc(Nc3nc(N4CCOCC4)c4oc5nc(OCCN6CCOCC6)ccc5c4n3)[nH]n2)cc1` [Example 24, 4-morpholino-7-(2-morpholinoethoxy)-N-(3-phenyl-1H-pyrazol-5-yl)pyrido[3′,2′:4,5]furo[3,2-d]pyrimidin-2-amine hydrochloride], for which the IC50 was 61 nM.

For the compound `c1ccc(-c2cc(Nc3nc(N4CCOCC4)c4oc5nc(OCCCN6CCOCC6)ccc5c4n3)[nH]n2)cc1` [Example 25, 4-morpholino-7-(3-morpholinopropoxy)-N-(3-phenyl-1H-pyrazol-5-yl)pyrido[3′,2′:4,5]furo[3,2-d]pyrimidin-2-amine hydrochloride], the IC50 was 14 nM.

Turning to `c1ccc(-c2cc(Nc3nc(N4CCOCC4)c4oc5nc(OCCN6CCCC6)ccc5c4n3)[nH]n2)cc1` [Example 26, 4-morpholino-N-(3-phenyl-1H-pyrazol-5-yl)-7-(2-(pyrrolidin-1-yl)ethoxy)pyrido[3′,2′:4,5]furo[3,2-d]pyrimidin-2-amine hydrochloride], the IC50 turned out to be 82 nM.

Consider `c1ccc(-c2cc(Nc3nc(N4CCOCC4)c4oc5nc(OCCCN6CCCC6)ccc5c4n3)[nH]n2)cc1` [Example 27, 4-morpholino-N-(3-phenyl-1H-pyrazol-5-yl)-7-(3-(pyrrolidin-1-yl)propoxy)pyrido[3′,2′:4,5]furo[3,2-d]pyrimidin-2-amine hydrochloride], for which the IC50 turned out to be 16 nM.

With `CN1CCN(CCOc2ccc3c(n2)oc2c(N4CCOCC4)nc(Nc4cc(-c5ccccc5)n[nH]4)nc23)CC1` [Example 28, 7-(2-(4-methylpiperazin-1-yl)ethoxy)-4-morpholino-N-(3-phenyl-1H-pyrazol-5-yl)pyrido[3′,2′:4,5]furo[3,2-d]pyrimidin-2-amine hydrochloride], the IC50 stood at 46 nM.

Consider `CN1CCN(CCCOc2ccc3c(n2)oc2c(N4CCOCC4)nc(Nc4cc(-c5ccccc5)n[nH]4)nc23)CC1` [Example 29, 7-(3-(4-methylpiperazin-1-yl)propoxy)-4-morpholino-N-(3-phenyl-1H-pyrazol-5-yl)pyrido[3′,2′:4,5]furo[3,2-d]pyrimidin-2-amine hydrochloride], for which the IC50 came to 3 nM.

For `COc1ccc2c(n1)oc1c(N3CCOCC3)nc(Nc3cc(-c4ccccc4)n[nH]3)nc12` [Example 30, 7-methoxy-4-morpholino-N-(3-phenyl-1H-pyrazol-5-yl)pyrido[3′,2′:4,5]furo[3,2-d]pyrimidin-2-amine hydrochloride], the IC50 came to 163 nM.

With `c1cncc(-c2cc(Nc3nc(N4CCOCC4)c4oc5ncccc5c4n3)[nH]n2)c1` [Example 31, 4-morpholino-N-(3-(pyridin-3-yl)-1H-pyrazol-5-yl)pyrido[3′,2′:4,5]furo[3,2-d]pyrimidin-2-amine hydrochloride], the IC50 stood at 1090 nM.

For `Cc1cncc(-c2cc(Nc3nc(N4CCOCC4)c4oc5ncccc5c4n3)[nH]n2)c1` [Example 32, N-(3-(5-methylpyridin-3-yl)-1H-pyrazol-5-yl)-4-morpholinopyrido[3′,2′:4,5]furo[3,2-d]pyrimidin-2-amine hydrochloride], the IC50 was found to be 825 nM.

In the case of `Cc1cccc(-c2cc(Nc3nc(N4CCOCC4)c4oc5ncccc5c4n3)[nH]n2)n1` [Example 33, N-(3-(6-methylpyridin-2-yl)-1H-pyrazol-5-yl)-4-morpholinopyrido[3′,2′:4,5]furo[3,2-d]pyrimidin-2-amine hydrochloride], the IC50 worked out at 261 nM.

As to `COc1cccc(-c2cc(Nc3nc(N4CCOCC4)c4oc5ncccc5c4n3)[nH]n2)c1` [Example 34, N-(3-(3-methoxyphenyl)-1H-pyrazol-5-yl)-4-morpholinopyrido[3′,2′:4,5]furo[3,2-d]pyrimidin-2-amine hydrochloride], the IC50 came to 303 nM.
